Assay results: ChEMBL document CHEMBL3580544, “Interaction of α-Hexylcinnamaldehyde with a Biomembrane Model: A Possible MDR Reversal Mechanism” (J Nat Prod, 2015)
The source made the active and inactive calls. The calls are words filed in the database; no cut-off is given here.

Legend:
[1] = Induction of thermotropic behavior changes in dimyristoylphosphatidylcholine multilamellar vesicles assessed as reduction in enthalpy of phase transition at 0.03 molar fraction by differential scanning calorimetry; design: scale not given: the % may be the effect or the level left
Lipid bilayer [2] = test: Induction of thermotropic behavior changes in dimyristoylphosphatidylcholine multilamellar vesicles assessed as reduction in enthalpy of phase transition at 0.12 molar fraction by differential scanning calorimetry; design: scale not given: the % may be the effect or the level left
[3] = Induction of thermotropic behavior changes in dimyristoylphosphatidylcholine multilamellar vesicles assessed as reduction in enthalpy of phase transition at 0.15 molar fraction by differential scanning calorimetry; design: scale not given: the % may be the effect or the level left
[4] = Induction of thermotropic behavior changes in dimyristoylphosphatidylcholine multilamellar vesicles assessed as reduction in enthalpy of phase transition at 0.09 molar fraction by differential scanning calorimetry; design: scale not given: the % may be the effect or the level left
[5] = Induction of thermotropic behavior changes in dimyristoylphosphatidylcholine multilamellar vesicles assessed as reduction in enthalpy of phase transition at 0.015 molar fraction by differential scanning calorimetry; design: scale not given: the % may be the effect or the level left
[6] = Induction of thermotropic behavior changes in dimyristoylphosphatidylcholine multilamellar vesicles assessed as changes in main transition peak at 0.015 to 0.15 molar fraction by differential scanning calorimetry
[7] = Induction of thermotropic behavior changes in dimyristoylphosphatidylcholine multilamellar vesicles assessed as reduction in enthalpy of phase transition at 0.06 molar fraction by differential scanning calorimetry; design: scale not given: the % may be the effect or the level left
[8] = Induction of thermotropic behavior changes in dimyristoylphosphatidylcholine multilamellar vesicles assessed as reduction in enthalpy of phase transition at 0.045 molar fraction by differential scanning calorimetry; design: scale not given: the % may be the effect or the level left
[9] = Induction of thermotropic behavior changes in dimyristoylphosphatidylcholine multilamellar vesicles assessed as reduction in cooperativity among phospholipid molecules by measuring peak width at half height at 0.015 to 0.15 molar fraction by differential scanning calorimetry
[10] = Drug absorption in dimyristoylphosphatidylcholine multilamellar vesicles at 0.09 molar fraction by differential scanning calorimetry; assay type: physicochemical
[11] = Antioxidant activity assessed as inhibition of AAPH-induced crocin oxidation at 5 to 500 uM in lipophilic medium containing linoleic acid by crocin bleaching assay; assay type: physicochemical
[12] = Drug absorption in dimyristoylphosphatidylcholine multilamellar vesicles at 0.045 molar fraction using lipophilic medium as carrier by differential scanning calorimetry; assay type: physicochemical; details: octanol/water
[13] = Induction of thermotropic behavior changes in dimyristoylphosphatidylcholine multilamellar vesicles assessed as reduction in transition temperature at 0.015 to 0.15 molar fraction by differential scanning calorimetry
[14] = Induction of thermotropic behavior changes in dimyristoylphosphatidylcholine multilamellar vesicles assessed as changes in pre-transition peak at 0.015 to 0.15 molar fraction by differential scanning calorimetry
[15] = Antioxidant activity assessed as inhibition of AAPH-induced crocin oxidation in hydrophilic medium at 5 to 500 uM by crocin bleaching assay; assay type: physicochemical
Lipid bilayer [16] = test: Binding affinity to external surface of dimyristoylphosphatidylcholine multilamellar vesicles at 0.09 molar fraction by differential scanning calorimetry
[17] = Pro-oxidant activity in hydrophilic medium by crocin bleaching assay; assay type: functional
[18] = Induction of thermotropic behavior changes in dimyristoylphosphatidylcholine multilamellar vesicles assessed as reduction in enthalpy of phase transition at 0.015 to 0.15 molar fraction by differential scanning calorimetry
[19] = Pro-oxidant activity in lipophilic medium containing linoleic acid by crocin bleaching assay; assay type: functional

| Activity [1] [%] | Activity (Lipid bilayer [2]) [%] | Activity [3] [%] | Activity [4] [%] | Activity [5] [%] | Activity [6] | Activity [7] [%] | Activity [8] [%] | Activity [9] | Drug uptake [10] | Activity [11] | Drug uptake [12] | Activity [13] | Activity [14] | Activity [15] | Activity (Lipid bilayer [16]) | Activity [18] | SMILES | Activity [17] | Activity [19] |
| --- | --- | --- | --- | --- | --- | --- | --- | --- | --- | --- | --- | --- | --- | --- | --- | --- | --- | --- | --- |
| 96 | 71.2 | 74.1 | 79.5 | 95 | Active | 91.7 | 98.3 | Dose-dependent effect | Active | Active | Active | Dose-dependent effect | Active | Active | Active | Dose-dependent effect | CCCCCC/C(C=O)=C\c1ccccc1 | inactive | inactive |
| – | – | – | – | – | – | – | – | – | – | Active | – | – | – | Active | – | – | Cc1c(C)c2c(c(C)c1O)CCC(C)(C(=O)O)O2 (stereo unspecified) [TROLOX] | – | – |
